Assays:
P388/0 cell lines = assay: Cytotoxicity assay (Alamar Blue) in P388/0 cells; assay type: cell-based; conditions: Mus musculus, 72 h, 3 days
Protocol: Cell Lines and Cytotoxicity Assays. Studies using P388/0 cell lines for IC50 (drug concentration inhibiting growth of cells by 50%) were maintained and conducted as previously reported. Briefly, for IC50 determination, cells were seeded into the microwell plates at a density of 2×10^3 cells per 50 μL per well. Plates were incubated at 37° C. in a humidified incubator with 5% CO2 for 3 days. Cell growth was measured by the addition of 10 μL/well of Alamar Blue (Alamar Biosciences, Inc., Sacramento, Calif.) and the plates were incubated a further 4 h at 37° C. The IC50 values for each compound were determined from absorbance versus dilution factor plots. All cell cultures for animal implantation were maintained at 37° C. in a humidified atmosphere of 5% CO2/95% O2 and subcultured once a week. All cell lines were periodically tested for Mycoplasma and were Mycoplasma free.

[1] = test system: Lung M109 Syngeneic Solid Tumors; assay: In vivo efficacy against M109 solid tumors; parameters: species or system Balb/C mice; conditions: i.v. day 1 & 4; for T/C (%) at Day 25: control median tumor ~2000 mm^3
Protocol: M109 cells (NCI), derived from donor mice, were grown and expanded in tissue culture for in vivo implantation. Cells were grown in EMEM with 10% FBS and 1% streptomycin/penicillin media, kept in an incubator at 37° C. with 5% CO2 and split twice a week. Cells were trypsinized, harvested, washed, counted and prepared in PBS for transport to the vivarium. Cells were kept on ice until implantation was conducted with minimum lag time. A cell suspension of approximately 5×10^6 cells/mL was used. Balb/C mice were implanted subcutaneous with 100 μL of the above cell suspension (Day 0). Treatments were administered intravenously on Day 1 and Day 4. Compound doses were based on the content of 6-MP. Body weight and tumor volume were then measured twice weekly until the group's median tumor volume exceeded 2000 mm^3. The tumor volume for each mouse was determined by measuring two dimensions with calipers and calculated using the formula: tumor volume=(length×width^2)/2. Drug effects were determined by comparing tumor growth in treated versus control (no vehicle) mice. Three types of endpoints were used as the basis for comparison: (a) the percent difference in tumor volume (% T/C), measured when the control group's median tumor volume reached approximately 800–1100 mm^3 (exponential growth phase), (b) again when the control group's median tumor volume was approximately 2000 mm^3 and (c) the number of tumor regression (smaller tumor volume on Day 25 compared to Day 1) per group.

`Sc1ncnc2nc[nH]c12` [Compound 1, 6-mercaptopurine, reference compound] was tested, and the IC50 (P388/0 cell lines) was 2670 nM, the “inhibiting the growth of M109 solid tumors” value ([1]; Balb/C mice) was “ineffective” and the “T/C (%) at Day 18” value ([1]; total dose 60 mg/kg (6-MP content), control median tumor ~1000 mm^3) was 127.1%. For the same compound, the “T/C (%) at Day 25” value ([1]; total dose 60 mg/kg (6-MP content)) was 122.0% and the “T/C (%) at Day 25” value ([1]; total dose 200 mg/kg) was 183.8%.
